# Results taken from patent US9700638B2, “Near infrared label and methods of use thereof” (priority 2013, dated 2017).
# Read-outs that look alike come from different tables or passages of the source.
# Tests used:
# [1] = Fluorescence spectra, relative brightness and quantum yield in various solvents; type: physicochemical; parameters: brightness: unit not given here; conditions: for QY (50% MeOH), quantum yield / RB (50% MeOH), relative brightness / QY (MeOH), quantum yield / RB (MeOH), relative brightness / QY (H20), quantum yield / RB (H2O), relative brightness: 1 μM; for increase of emission in 100% methanol compared to 50% methanol: 100% methanol vs 50% methanol; for QY (H20), quantum yield / RB (H2O), relative brightness: H2O; for increase of light emission in 50% methanol compared to water: 50% methanol vs water
# Procedure: (§1) The molar extinction of 7-aminoDDAO (55 000 M-1 cm-1) was determined by the attachment of reference chromophores with known molar absorptivity (Table 1). Light absorption spectra of the labeled caspofungin and posaconazole derivatives were close to superposition of those for the 7-(4-aminobutyl)amino-DDAO and the corresponding drugs, which is illustrated in FIG. 4 on the example of posaconazole derivative. […] Thus, excitation and emission maxima for DDAO were 653 nm and 660 nm correspondingly, while for 7-(4-aminobutyl)amino-DDAO they shifted to 671 nm and 679 nm correspondingly. […] Remarkably, the shape of the excitation spectrum curve for ionized form of DDAO was the same in 50% and 100% methanol.
# However, posaconazole derivative behaved differently. […] The suppression of the fluorophore light emission in posaconazole derivative is likely due to the presence of extended light-absorbing moiety that can stack to the fluorophore, causing contact quenching (FIG. 7). […] in fluorescence is expected upon interaction of the labeled drug with its cellular target, whereby stacking interactions of the fluorophore with the drug moiety have to be destroyed (FIG. 7B). This beneficial “signaling” effect is expected to greatly increase the contrast of imaging by minimizing the background signal of non-bound compound, which remains “dark”.
# Table 2 illustrates light emission properties of DDAO-based diagnostic probes and reference compounds, and presents the data on quantum yield and brightness for 7-aminoDDAO compound at various conditions. These parameters were determined using a reference fluorophore Cy5.5, (which has the excitation and emission maxima nearly identical to those for 7-aminoDDAO) and published data for original DDAO fluorophore. […] This was perhaps due to higher light absorptivity and higher quantum yield of the amino-derivative. The difference in brightness further increased in 50% methanol (21 000 and 9000 correspondingly).
# [2] = Light absorption / molar absorptivity of DDAO and 7-aminoDDAO derivatives; type: physicochemical; conditions: for light absorption maximum: FIG. 4, 50% MeOH
# Procedure: as §1
# [3] = Chemical and photochemical stability of the fluorophore; type: physicochemical
# [4] = reference chromophores with known molar absorptivity; cited from earlier work
# Candida albicans = test: Imaging of fungal infection in mice kidneys by whole-body fluorescence imaging; type: in vivo
# Procedure: Mice were infected via intravenous inoculation with 5*10^5 CFU of wild type Candida albicans and an infection that occurs most prominently in the kidneys. After 48 hours post infection, a fixed concentration of 0.12 ug/mL of CSF-DDAO is added via tail vein injection at 0, 2, 4 and 8 hours to assess the optimal time for visualization of the infection. At each time point, the mice were imaged in a non-invasive whole-body animal imaging system to detect fluorescence energy. Animals infected with Candida albicans show proliferation of the fungal infection in the kidneys after 48 hours. […] Maximum labeling occurred at 8 hours. […] At the same time no signal was detected in uninfected and/or untreated organs.
# [5] = listed as 7-(4-aminobutyl)amino-DDAO
Molecule,brightness [1],pH dependence of the fluorophore [1],"QY (50% MeOH), quantum yield [1]","RB (50% MeOH), relative brightness [1]","QY (MeOH), quantum yield ([1]; 100% MeOH)","RB (MeOH), relative brightness ([1]; 100% MeOH)",increase of emission in 100% methanol compared to 50% methanol [1],"QY (H20), quantum yield [1]","RB (H2O), relative brightness [1]",molar absorbance [2],ε [2],light absorption maximum [2],increase of light emission in 50% methanol compared to water [1],Molar absorption for attached compounds [4],also measured
"CC1(C)C2=C(Cl)C(=O)C(Cl)=CC2=Nc2ccc(O)cc21 [DDAO, 7-hydroxy-9H-(1,3-dichloro-9,9-dimethylacridin-2-one), reference compound]","3,600",pH-dependent,0.19,9000,0.25,12 000,1.3 fold,0.125,6 000,"48,000","48,000 M^−1cm^−1",653 nm,,,"emission maximum [1]: 660 nm; excitation maximum [1]: 653 nm; RB (50% MeOH), relative brightness ([1]; listed as DDAO (pH 9.0)): 9,000; RB (MeOH), relative brightness ([1]; 100% MeOH, listed as DDAO (pH 9.0)): 12,000; RB (H2O), relative brightness ([1]; listed as DDAO (pH 9.0)): 6,000"
"CC1(C)C2=C(Cl)C(=O)C(Cl)=CC2=Nc2ccc(NCCCCN)cc21 [DDAO NH2, DDAO—NH—(CH2)4—NH2]","6,000",pH-independent,0.40,"21,000",0.25,"13,000",,0.19,"10,000","53,000","53,000 M^−1cm^−1",673 nm,ca. 2.5 fold,,"long-wavelength emission range [1]: 640-700 nm; RB (50% MeOH), relative brightness ([1]; listed as 7-aminoDDAO): 21 000; emission maximum in 100% MeOH ([1]; 100% MeOH): 670 nm; excitation maximum in 100% MeOH ([1]; 100% MeOH): 620 nm; drop of light emission intensity in 100% MeOH ([1]; 100% MeOH vs 50% methanol): 1.7 fold; RB (MeOH), relative brightness ([1]; 100% MeOH, listed as 7-aminoDDAO): 13 000; RB (H2O), relative brightness ([1]; listed as 7-aminoDDAO): 10 000; emission maximum [1, 5]: 679 nm; excitation maximum [1, 5]: 671 nm; emission maximum ([1]; listed as 7-aminoDDAO): 680 nm; emission maximum ([1]; listed as 7-aminoDDAP): 680 nm; excitation maximum ([1]; listed as 7-aminoDDAP): 670 nm; chemical and photochemical stability [3]: chemically and photochemically stable; Calculated molar absorption for DDAO residue ([2]; attached compound BODIPY-FL): 70,000 M^−1cm^−1; Calculated molar absorption for DDAO residue ([2]; attached compound DNP): 32,000 M^−1cm^−1; Calculated molar absorption for DDAO residue ([2]; attached compound Posaconazole): 59,000 M^−1cm^−1; Calculated molar absorption for DDAO residue, Average ([2]; average over three attached chromophores): 53,000 M^−1cm^−1; molar extinction ([2]; determined by attachment of reference chromophores): 55 000 M-1 cm-1"
Cc1cc(C)n2c1C=C1C=CC(CCC(=O)O)=[N+]1[B-]2(F)F [BODIPY-FL],,,,,,,,,,,,,,"82,000 M^−1cm^−1",
DDAO—NH—(CH2)4—NCS-Caspofungin [DDAO Casp],,,0.26,"13,800",0.42,"22,000",1.3 fold,0.11,"6,000",,"53,000 M^−1cm^−1",,2 fold,,"fluorescent signal of the infected organ (kidney) (Candida albicans; C. albicans infected mice kidney, FIG. 8): bright fluorescent signal; labeling of cells in the target organs over time (Candida albicans; infected mice, whole body imaging at 0, 2, 4 and 8 hours): progressive labeling of cells in the target organs over time; time of maximum labeling after probe injection (Candida albicans; mice 48 h post i.v. infection with C. albicans, 0.12 ug/mL via tail vein, whole body imaging): 8 h; accumulation in the kidneys in the absence of infection (Candida albicans; uninfected mice): did not accumulate in the kidneys"
CC[C@@H]([C@H](C)O)n1ncn(-c2ccc(N3CCN(c4ccc(OC[C@@H]5CO[C@@](Cn6cncn6)(c6ccc(F)cc6F)C5)cc4)CC3)cc2)c1=O [Posaconazole],,,,,,,,,,,,,,"34,000 M^−1cm^−1",
